Measured values published in US7105536B2, “Compounds” (SmithKline Beecham plc, priority 1999, dated 2006).

These compounds were tested on male rats (Sprague Dawley) (assay: Maximal electroshock seizure (MEST) threshold test, rat model). Details: 2 mg/kg p.o. at 2 h, suspended in 1% methyl cellulose.
Type: in vivo
Method: The maximal electroshock seizure (MEST) threshold test in rodents is particularly sensitive for detecting potential anticonvulsant properties^1. In this model, anticonvulsant agents elevate the threshold to electrically-induced seizures whilst proconvulsants lower the seizure threshold.
The threshold for maximal (tonic hindlimb extension) electroshock seizures in male rats (Sprague Dawley, 80–150 g, 6 weeks old) was determined by a Hugo Sachs Electronik stimulator which delivered a constant current (0.3 sec duration; from 1–300 mA in steps of 5–20 mA). The procedure is similar to that outlined above for mouse and full details are as published by Upton et al,.^4
The percentage increase or decrease in CC50 for each group compared to the control is calculated. Drugs are suspended in 1% methyl cellulose.

SMILES | percentage increase in CC50 compared to the control [%]
CCOc1ccc(C(=O)Nc2cc(Cl)c3c(c2)CNCC3)cc1Cl [Example 2, N-(5-Chloro-1,2,3,4-tetrahydroisoquinolin-7-yl)-3-chloro-4-ethoxy benzamide] | 390
CC(C)c1ccc(C(=O)Nc2cc(Cl)c3c(c2)CNCC3)cc1C#N [Example 3, N-(5-Chloro-1,2,3,4-tetrahydroisoquinolin-7-yl)-3-cyano-4-iso-propyl benzamide] | 140
COc1ccc(C(=O)Nc2cc(Cl)c3c(c2)CNCC3)cc1C#N [Example 5, N-(5-Chloro-1,2,3,4-tetrahydroisoquinolin-7-yl)-3-cyano-4-methoxybenzamide] | 210
CCOc1ccc(C(=O)Nc2cc(Cl)c3c(c2)CNCC3)cc1Br [Example 7, N-(5-Chloro-1,2,3,4-tetrahydroisoquinolin-7-yl)-3-bromo-4-ethoxybenzamide] | 410
CC(=O)c1cc(C(=O)Nc2cc(Cl)c3c(c2)CNCC3)ccc1OC(C)C [Example 8, N-(5-Chloro-1,2,3,4-tetrahydroisoquinolin-7-yl)-3-acetyl-4-iso-propoxybenzamide] | 114
